Literature values, collected in US20110015182A1, “NOVEL CARBAMATE AMINO ACID AND PEPTIDE PRODRUGS OF OPIOIDS AND USES THEREOF” (priority 2009, published 2011).

Assays:
[1] = concurrent oral administration with various opioids; Linn and Steinbrook (2007)
[2] = Norbury et al. (1983)

| SMILES | adverse GI effects of opioids (constipation, nausea and vomiting) [1] | range of observed oral bioavailabilities [2] |
| --- | --- | --- |
| C[C@H]1CN(C[C@H](Cc2ccccc2)C(=O)NCC(=O)O)CC[C@@]1(C)c1cccc(O)c1 [alvimopan] | markedly reduce | – |
| CCC1(c2cccc(O)c2)CCCCN(C)C1 (centres unmarked) [meptazinol] | – | 2-20% |
